The text below walks through data of US8999980B2, “Oxazine derivatives” (Shionogi & Co., Ltd., priority 2009, dated 2015).

The target of this assay is Recombinant human BACE1 (Homo sapiens (Human), UniProt P56817). Put plainly: Assay of BACE1 inhibiting activity. It is filed as biochemical. To be noted: read-out: IC50 (50% inhibitory concentration against the enzymatic activity); Recombinant human BACE1 7.4 nmol/L, substrate peptide 18 nmol/L, pH 5.0, 30° C., 3 hours. The procedure: 48.5 μL of substrate peptide solution (Biotin-XSEVNLDAEFRHDSGC-Eu: X=ε-amino-n-capronic acid, Eu=Europium cryptate) was added to each well of 96-hole half-area plate (a black plate: Costar), and after addition of 0.5 μl of the test compound (dissolved in N,N′-dimethyl formaldehyde) and 1 μl of Recombinant human BACE1(R&D Systems), the reaction mixture was incubated at 30° C. for 3 hours. The substrate peptide was synthesized by reacting Cryptate TBPCOOH mono SMP (CIS bio international) with Biotin-XSEVNLDAEFRHDSGC (Peptide Institute, Inc.).
Sequence of Recombinant human BACE1 (P56817 46-501): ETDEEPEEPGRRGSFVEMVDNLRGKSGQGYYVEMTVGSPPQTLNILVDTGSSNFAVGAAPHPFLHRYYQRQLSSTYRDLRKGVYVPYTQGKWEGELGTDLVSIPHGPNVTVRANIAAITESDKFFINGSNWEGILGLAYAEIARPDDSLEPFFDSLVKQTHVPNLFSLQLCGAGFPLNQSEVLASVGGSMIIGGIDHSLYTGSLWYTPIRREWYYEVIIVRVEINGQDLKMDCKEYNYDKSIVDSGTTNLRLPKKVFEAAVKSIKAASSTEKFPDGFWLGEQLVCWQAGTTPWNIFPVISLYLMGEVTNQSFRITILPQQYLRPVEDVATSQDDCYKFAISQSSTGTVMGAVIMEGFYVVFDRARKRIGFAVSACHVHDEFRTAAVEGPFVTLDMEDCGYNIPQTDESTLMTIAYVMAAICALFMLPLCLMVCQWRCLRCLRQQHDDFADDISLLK
After the incubation for reaction, 50 μl of 8.0 μg/ml Streptavidin-XL665 (CIS bio international) dissolved in phosphate buffer (150 mmol/L K2HPO4—KH2PO4, pH 7.0, 0.008% Triton X-100, 0.8 mol/L KF) was added to each well and left stand at 30° C. for an hour.

As to `C=C1C[C@@](C)(c2cc(NC(=O)c3ccc(Cl)cn3)ccc2F)N=C(N)O1` [Compound I-2], the IC50 was 0.027 µM.
Regarding `C=C1C[C@@](C)(c2cc(NC(=O)c3cnc(OC)cn3)ccc2F)N=C(N)O1` [Compound I-3], the IC50 was ≤ 30 µM.
`C=C1C[C@@](C)(c2cc(NC(=O)c3ncc(Cl)cc3Cl)ccc2F)N=C(N)O1` [Compound I-4]: the IC50 was ≤ 30 µM.
As for `C=C1C[C@@](C)(c2cc(NC(=O)c3ncc(F)cc3F)ccc2F)N=C(N)O1` [Compound I-5], the IC50 was ≤ 30 µM.
